The results in this text go back to US11840686B2, “Modulation of prekallikrein (PKK) expression” (Ionis Pharmaceuticals, Inc., priority 2013, dated 2023).

Strand notation (5' to 3'): a small letter for the sugar, then the base; units joined by * are phosphorothioate-linked, units joined directly phosphodiester-linked; [ ] holds rarer units or linkages, { } end groups; capitals alone tell only the bases. e = 2'-O-(2-methoxyethyl) (MOE); [5mC] = 5-methylcytosine; d = 2'-deoxy (DNA)

This series concerns human PKK mRNA. Description: Antisense inhibition of human PKK mRNA in HepaRG cells, 5,000 nM (Example 2). The class given is cell-based. In a few lines:
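Percent inhibition of PKK mRNA is relative to untreated control, with qRT-PCR (probe set RTS3454) values adjusted to total RNA by RIBOGREEN. Oligonucleotides, fully phosphorothioate 2′-MOE gapmers, were delivered at 5,000 nM by electroporation into 20,000 HepaRG cells/well for about 24 h.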

[1] abbreviates: human PKK mRNA, HepaRG cells, 5,000 nM antisense oligonucleotide, Table 18.
Setting [2] is: HepaRG cells, electroporation with 5,000 nM antisense oligonucleotide, approximately 24 hours, PKK mRNA by RT-PCR (RTS3454), relative to untreated control cells, Table 5 experiment.
[3] abbreviates: human PKK mRNA in HepaRG cells, 5-10-5 gapmers, Table 14.
[4] abbreviates: HepaRG cells, 5,000 nM antisense oligonucleotide, 5-10-5 gapmers, Table 16.
[5] abbreviates: Table 9 experiment, HepaRG cells, 20,000 cells per well, electroporation with 5,000 nM antisense oligonucleotide, approx. 24 hours, PKK mRNA by RT-PCR (RTS3454), relative to untreated control cells.
[6] abbreviates: Table 10 experiment, HepaRG cells, 20,000 cells per well, electroporation with 5,000 nM antisense oligonucleotide, approx. 24 hours, PKK mRNA by RT-PCR (RTS3454), relative to untreated control cells.
The mark [7] stands for this setting: HepaRG cells, electroporation, 5,000 nM antisense oligonucleotide, approx. 24 hours, primer probe set RTS3454, relative to untreated control cells, Table 11.
[8] abbreviates: human PKK mRNA, HepaRG cells, 5-10-5 motif oligonucleotides targeting SEQ ID NO: 1 and 10.
Where [9] appears, read: HepaRG cells, electroporation, 5,000 nM antisense oligonucleotide, approx. 24 hours, primer probe set RTS3454, relative to untreated control cells, Table 12.
Setting [10] is: HepaRG cells, electroporation with 5,000 nM antisense oligonucleotide, approximately 24 hours, PKK mRNA by RT-PCR (RTS3454), relative to untreated control cells, Table 6 experiment.
[11] abbreviates: Table 8, HepaRG cells, electroporation with 5,000 nM antisense oligonucleotide, approx. 24 hours, PKK mRNA by RT-PCR (RTS3454), relative to untreated control cells.
Setting [12] is: Table 7, HepaRG cells, electroporation with 5,000 nM antisense oligonucleotide, approx. 24 hours, PKK mRNA by RT-PCR (RTS3454), relative to untreated control cells.

As a reminder, the % inhibition is the share of the control response that was lost under treatment. Higher therefore signals a response far below the control. As to “548773 (antisense e[5mC]*eT*eA*eT*dA*dA*d[5mC]*dA*dG*dT*dA*dT*d[5mC]*eA*e[5mC]*eT*eG) [compound 548773]”, the “% inhibition” value under setting [1] came out at 0%. As to “546149 (e[5mC]*e[5mC]*e[5mC]*e[5mC]*eA*d[5mC]*d[5mC]*dT*d[5mC]*dT*dG*dA*dA*dG*dA*eA*eG*eG*e[5mC]*eG; antisense) [compound 546149]”, the “% inhibition” value under setting [2] is 83%. As for “548783 (antisense eA*e[5mC]*e[5mC]*eT*dA*dT*dA*dA*d[5mC]*dT*dA*dT*dA*eA*e[5mC]*eA*eA) [compound 548783]”, the “% inhibition” value under setting [1] was determined as 0%. Regarding “547729 (eG*eT*eG*eA*eG*dA*dT*dT*dG*dG*dT*dG*dG*dT*dG*eG*eG*eT*eG*eG; antisense) [compound 547729]”, where the note is “HepaRG cells, 5,000 nM antisense oligonucleotide, 5-10-5 gapmers, Table 17”, the “% inhibition” value amounted to 45%. “546882 (eT*eA*eG*eT*eT*dT*d[5mC]*d[5mC]*dT*dA*dT*dA*dA*d[5mC]*dA*eG*eT*eA*eT*e[5mC]; antisense) [compound 546882]”: under setting [3], the “% inhibition” value stood at 24%. As for “547598 (antisense eA*e[5mC]*eT*eA*eT*dA*dA*d[5mC]*dA*dA*dT*dA*dT*d[5mC]*dA*e[5mC]*eT*eG*eT*e[5mC]) [compound 547598]”, under setting [3], the “% inhibition” value was 59%. Regarding “546918 (eA*eA*e[5mC]*eA*eT*d[5mC]*dA*d[5mC]*dT*dG*dT*dA*d[5mC]*d[5mC]*dT*eA*eT*eA*eA*e[5mC]; antisense) [compound 546918]”, under setting [4], the “% inhibition” value is 14%. For the substance “546317 (antisense eA*eG*eG*eA*eG*d[5mC]*d[5mC]*dT*dG*dG*dA*dG*dT*dT*dT*eT*eA*eT*e[5mC]*eA) [compound 546317]”, the “% inhibition” value under setting [5] is 12% and the “% inhibition” value under setting [6] is given as 31%. “547497 (antisense eA*e[5mC]*eT*eG*e[5mC]*dT*dT*d[5mC]*dT*d[5mC]*dA*dT*dG*d[5mC]*dT*eG*eG*eT*eG*eA) [compound 547497]”: under setting [7], the “% inhibition” value worked out at 68%. Turning to “548710 (DNA eT*eG*eT*dA*d[5mC]*dT*dA*dG*dT*dT*dT*d[5mC]*d[5mC]*eT*eA*eT; antisense) [compound 548710]”, the “% inhibition” value (HepaRG cells, 5,000 nM antisense oligonucleotide, human PKK mRNA, Table 18) turned out to be 0%.

In the case of “547590 (eA*eT*eA*eA*e[5mC]*dT*dA*dT*dA*dA*d[5mC]*dA*dG*dT*dA*eT*e[5mC]*eA*e[5mC]*eT; antisense) [compound 547590]”, under setting [3], the “% inhibition” value is 0%. As for “546909 (eA*eA*e[5mC]*eA*eA*dT*dA*dT*d[5mC]*dA*d[5mC]*dT*dG*dT*dA*e[5mC]*e[5mC]*eT*eT*eT; antisense) [compound 546909]”, the “% inhibition” value under setting [8] is listed as 44%. As for “547551 (antisense eT*e[5mC]*e[5mC]*e[5mC]*e[5mC]*dA*dT*dG*d[5mC]*dA*dT*dA*d[5mC]*dT*d[5mC]*eG*e[5mC]*e[5mC]*eT*eT) [compound 547551]”, the “% inhibition” value under setting [9] amounted to 38%. Consider “546687 (eT*eG*eA*eG*eA*d[5mC]*d[5mC]*dT*d[5mC]*d[5mC]*dA*dG*dA*d[5mC]*dT*eA*e[5mC]*eT*eG*eT; antisense) [compound 546687]”, for which the “% inhibition” value under setting [9] stood at 76%. Consider “547469 (antisense eT*eT*eA*e[5mC]*e[5mC]*d[5mC]*dA*dA*d[5mC]*dA*dG*dT*dT*dG*dG*eT*eA*eT*eA*eA) [compound 547469]”, for which the “% inhibition” value is reported as 67% under setting [5] and 50% under setting [6]. Turning to “546360 (antisense eA*e[5mC]*eT*eG*e[5mC]*dA*dT*d[5mC]*dT*dG*dA*dG*d[5mC]*dT*dT*eT*eT*e[5mC]*e[5mC]*eA) [compound 546360]”, the “% inhibition” value under setting [7] is 13%. On to “546143 (eG*eG*eA*eA*eA*d[5mC]*dT*dG*dT*dA*dG*d[5mC]*dA*dA*dA*e[5mC]*eA*eA*eG*eG; antisense) [compound 546143]”, for which the “% inhibition” value under setting [2] is 46%. As to “547448 (antisense eT*eT*eA*eT*eT*dT*dG*dT*dG*dA*dG*dA*dA*dA*dG*eG*eT*eG*eT*eA) [compound 547448]”, the “% inhibition” value is recorded as 75% under setting [5] and 83% under setting [6].

Regarding “548760 (antisense eT*eA*eA*e[5mC]*dA*dG*dT*dA*dT*d[5mC]*dA*d[5mC]*dT*eG*eT*eA*e[5mC]) [compound 548760]”, under setting [1], the “% inhibition” value was 53%. For the substance “547347 (antisense eA*e[5mC]*eT*eG*e[5mC]*dT*dA*dA*d[5mC]*d[5mC]*dT*dT*dA*dG*dA*e[5mC]*eA*e[5mC]*eA*eT) [compound 547347]”, the “% inhibition” value under setting [10] stood at 82%. As for “546735 (e[5mC]*eA*eA*e[5mC]*e[5mC]*dT*dG*dT*d[5mC]*d[5mC]*dA*dT*dT*d[5mC]*d[5mC]*e[5mC]*eT*eG*eG*eG; antisense) [compound 546735]”, the “% inhibition” value (Table 13, human PKK mRNA in HepaRG cells, 5-10-5 gapmers) stood at 46%. As to “548745 (DNA eA*eT*e[5mC]*eA*d[5mC]*dT*dG*dT*dA*d[5mC]*dT*dA*dG*eT*eT*eT*e[5mC]; antisense) [compound 548745]”, the “% inhibition” value under setting [1] is recorded as 71%.

In the case of “547318 (antisense e[5mC]*e[5mC]*eA*eG*eA*dA*dA*d[5mC]*dT*dG*d[5mC]*dA*d[5mC]*d[5mC]*dT*eG*eT*eT*e[5mC]*eG) [compound 547318]”, under setting [10], the “% inhibition” value is on record as 74%. Consider “547317 (antisense e[5mC]*eA*eG*eA*eA*dA*d[5mC]*dT*dG*d[5mC]*dA*d[5mC]*d[5mC]*dT*dG*eT*eT*e[5mC]*eG*eA) [compound 547317]”, for which the “% inhibition” value under setting [10] is 75%. As to “546869 (eT*eG*eT*eA*e[5mC]*d[5mC]*dT*dA*dT*dA*dA*d[5mC]*dT*d[5mC]*dT*eA*eA*e[5mC]*eA*eG; antisense) [compound 546869]”, the “% inhibition” value under setting [3] was determined as 53%. For “547673 (eG*eA*eA*eT*eA*dT*d[5mC]*dA*d[5mC]*dT*dG*dT*d[5mC]*d[5mC]*dT*eA*eT*eA*eA*e[5mC]; antisense) [compound 547673]”, the “% inhibition” value under setting [8] turned out to be 21%.

For the substance “547460 (antisense e[5mC]*eT*eG*eG*eA*dG*dT*dT*dT*dT*dA*dT*d[5mC]*dA*dA*eG*eG*e[5mC]*eG*eA) [compound 547460]”, the “% inhibition” value is, setting by setting: under setting [5], 72%; under setting [6], 75%. With “547430 (e[5mC]*eA*eA*eT*e[5mC]*dT*d[5mC]*dA*dA*dA*dG*dA*dG*dT*dA*eA*e[5mC]*e[5mC]*eA*eG; antisense) [compound 547430]”, under setting [11], the “% inhibition” value amounted to 70%. In the case of “547407 (eT*eT*e[5mC]*eA*eA*dT*dT*d[5mC]*dT*dT*d[5mC]*dT*d[5mC]*d[5mC]*dT*e[5mC]*e[5mC]*eA*eA*eA; antisense) [compound 547407]”, the “% inhibition” value under setting [12] is reported as 59%. As for “546297 (antisense eT*eA*eT*eA*eG*dA*dT*dG*d[5mC]*dG*d[5mC]*d[5mC]*dA*dA*dA*e[5mC]*eA*eT*e[5mC]*e[5mC]) [compound 546297]”, the “% inhibition” value under setting [11] turned out to be 82%. Turning to “547400 (eT*eG*eG*e[5mC]*eA*dG*dG*dG*dT*dT*d[5mC]*dA*dG*dG*dT*eA*eA*eA*eG*eT; antisense) [compound 547400]”, under setting [12], the “% inhibition” value turned out to be 0%. Still for that read-out and setting: next, “546217 (antisense e[5mC]*eA*e[5mC]*eA*eA*dA*dA*dG*d[5mC]*dA*dT*d[5mC]*dT*dG*dG*eA*eG*eT*eG*eA) [compound 546217]”: 83%. For “547540 (antisense eT*eT*eG*eT*eG*dT*dG*dG*d[5mC]*d[5mC]*d[5mC]*dT*d[5mC]*dT*dT*eA*eA*eG*eT*e[5mC]) [compound 547540]”, the “% inhibition” value under setting [9] amounted to 44%. Regarding “547599 (antisense eT*eT*e[5mC]*e[5mC]*eT*dA*dT*dA*dA*d[5mC]*dT*dA*dT*dA*dA*e[5mC]*eA*eA*eT*eA) [compound 547599]”, under setting [3], the “% inhibition” value was found to be 4%. For the substance “546387 (eA*eG*e[5mC]*eG*eG*dG*d[5mC]*dT*dT*d[5mC]*dA*dG*d[5mC]*d[5mC]*dA*eG*eA*e[5mC]*eA*eT; antisense) [compound 546387]”, the “% inhibition” value under setting [7] is 77%. Take “547311 (antisense e[5mC]*eA*e[5mC]*eT*eA*dT*d[5mC]*dT*dT*dT*d[5mC]*dA*dA*dG*dA*eA*eG*e[5mC]*eA*eA) [compound 547311]”: the “% inhibition” value under setting [2] is reported as 71%.

On to “546935 (e[5mC]*eG*eT*eG*eG*dT*dT*dA*dG*d[5mC]*d[5mC]*dT*dG*dA*d[5mC]*eA*eT*e[5mC]*eT*e[5mC]; antisense) [compound 546935]”, for which the “% inhibition” value under setting [4] was found to be 86%. For “546955 (eA*e[5mC]*eA*eA*eG*dG*d[5mC]*dT*dT*d[5mC]*dG*dA*dG*dG*dA*e[5mC]*eA*eG*e[5mC]*e[5mC]; antisense) [compound 546955]”, under setting [4], the “% inhibition” value came to 49%.

On to “548735 (DNA eA*eT*e[5mC]*eA*d[5mC]*dT*dG*dT*dA*d[5mC]*dT*dA*dG*dT*eT*eT*e[5mC]; antisense) [compound 548735]”, for which the “% inhibition” value under setting [1] is recorded as 48%.
